Reference: patent US10315990B2, “Isothiocyanate compounds and isothiocyanate XPO1 protein inhibitor drugs thereof” (DRIVINGFORCE THERAPEUTICS Co., Ltd., priority 2015, dated 2019)

How the values were obtained:
[1] = system: HMLE-Snail cell line; experiment: Formation of HMLE-Snail cell line spheroids; type: cell-based; conditions: 10 μg/ml, treated for 24 hours; control = 100; read-out: Colony (%): cell colony number of drug-treated group/cell colony number of control group × 100%
Procedure: HMLE-Snail cell line is one of most classic cell models for studying tumor cell metastasis and EMT path. HMLE-Snail cell line highly expresses Snail protein, and thus one of most remarkable features thereof is that it has spherical cellular morphology (spheroid). […] The HMLE-Snail cell line used in the present invention was donated by Dr. Robert Weinberg from America Massachusetts Whitehead Institute. HMLE-Snail cells were suspended in a liquid culture medium (in which B-27 and N-2 were added, purchased from America Invitrogen Corporation) containing DMEM/F12 in a ratio of 1:1, in an amount of 1.0×10^3 cells/ml, and cultured in an ultra low attachment culture plate so as to allow spheroids to be formed. Seven days later, spheroids were collected by centrifugation, and counted. […] Docetaxel is a common clinical chemotherapy drug.

[2] = molecular target: T1, XPO1 protein (Homo sapiens, UniProt O14980); experiment: Inhibitory activity for XPO1 protein (NES-GFP nuclear export, laser confocal microscope); type: cell-based; conditions: NES-GFP nuclear export, cells treated for 2 hours
T1 construct: Sixteen hours later, NES-GFP plasmid was transfected with liposome; endogenous in cells
Source text: NES (nuclear export signal) is a nuclear export signal peptide recognized by XPO1 protein. XPO1 recognizes NES sequence peptide segment of biomacromolecule and exports the biomacromolecule out of nucleus. NES-GFP protein is obtained by co-expressing green fluorescence protein GFP and NES sequence peptide segment by using a eukaryotic expression plasmid. Inhibitory activity of the representative compound for XPO1 protein can be assessed by detecting influence of the compound on NES-GFP cell localization.
The cells were digested with trypsin, counted, and inoculated on 96-well plate in an amount of 1.5×10^4 cells per well. Sixteen hours later, NES-GFP plasmid was transfected with liposome.

[3] = system: TNF-α; experiment: Serum TNF-α level of IBD animal model (ELISA); type: in vivo, SD rats; conditions: 80 mg/kg, three days after making the TNBS model
Source text: (§1) Inflammatory bowel disease is an autoimmune disease. […] The therapeutic effect of the representative compound for the immune system disease or inflammation can be assessed by detecting change in levels of some important cytokines such as TNF-α and IL-6 at downstream of the signal path.

[4] = system: IBD animal model; experiment: Macroscopic pathological changes of IBD animal model (enteroclysis with TNBS); type: in vivo, SD rats; conditions: TNBS rats; for Macroscopic pathological score: 80 mg/kg intragastrically daily, score 0-5, 10 animals
Procedure: Eight-week-old male SD rats (10 rats per group) were fasted for 24 hours and anaesthetized with diethyl ether. 50% ethanol and TNBS (2,4,6-trinitrobenzenesulfonic acid) were mixed to prepare a solution. In the IBD model group, a tube made of vinyl resin was inserted 5 cm from anus, and enteroclysis was performed with the TNBS solution in a dose of 100 mg/kg. The rats were hung upside down 30 seconds later after the enteroclysis to ensure no leakage of the TNBS solution. In the control group, the TNBS solution was replaced with normal saline with which enteroclysis was performed. Seven days later after the enteroclysis with the TNBS solution or normal saline, animals were sacrificed and dissected. […] Two weeks later after treated with the drugs, the animals were sacrificed and dissected, and large intestine thereof was taken out and fixed in 4% formalin solution for 30 minutes. The large intestine of the animals was cut lengthwise from the mesentery side to take photos for rectum portion and measure the weight of rectum. Based on the macroscopic observation and judgment score (Table 2-1), ulceration and bleeding states of rectum portion were scored according to the macroscopic observation scoring standard.

[5] = system: IL-6; experiment: Serum IL-6 level of IBD animal model (ELISA); type: in vivo, SD rats; conditions: 80 mg/kg, three days after making the TNBS model
Source text: as §1

[6] = system: SK-OV3 (high metastasis type ovarian cancer cell line); experiment: Ovarian cancer intraperitoneal metastasis animal model; type: in vivo, nudemice (BALB/c-nu/nu); conditions: Mus musculus, SK-OV-3, ip
Procedure: The ovarian cancer intraperitoneal metastasis animal model is one of most classic animal models for studying anti-ovarian cancer metastasis drug. Sixty 5 to 6-week-old female nudemice with similar weight (BALB/c-nu/nu) were chosen. SK-OV3 (high metastasis type ovarian cancer cell line) stably expressing green fluorescence protein was screened, and prepared into a cell suspension of 2×10^6 cells/100 μl with serum-free PRMI1640 medium. […] Three weeks later, the cancer was detected with a small animal in vivo imaging apparatus (Xenogen, School of Medicine, Shanghai Jiaotong University) and photos thereof were taken. […] In the table, T represents the drug-treated group, and C represents the blank control group. T/C is (V/V0 of compound-treated group)/(V/V0 of blank control group) in which V represents the cancer volume of mouse on the day the detection was performed, and V0 represents the cancer volume of mouse on the day the administration begun.

T1 sequence (O14980 whole entry, species assumed): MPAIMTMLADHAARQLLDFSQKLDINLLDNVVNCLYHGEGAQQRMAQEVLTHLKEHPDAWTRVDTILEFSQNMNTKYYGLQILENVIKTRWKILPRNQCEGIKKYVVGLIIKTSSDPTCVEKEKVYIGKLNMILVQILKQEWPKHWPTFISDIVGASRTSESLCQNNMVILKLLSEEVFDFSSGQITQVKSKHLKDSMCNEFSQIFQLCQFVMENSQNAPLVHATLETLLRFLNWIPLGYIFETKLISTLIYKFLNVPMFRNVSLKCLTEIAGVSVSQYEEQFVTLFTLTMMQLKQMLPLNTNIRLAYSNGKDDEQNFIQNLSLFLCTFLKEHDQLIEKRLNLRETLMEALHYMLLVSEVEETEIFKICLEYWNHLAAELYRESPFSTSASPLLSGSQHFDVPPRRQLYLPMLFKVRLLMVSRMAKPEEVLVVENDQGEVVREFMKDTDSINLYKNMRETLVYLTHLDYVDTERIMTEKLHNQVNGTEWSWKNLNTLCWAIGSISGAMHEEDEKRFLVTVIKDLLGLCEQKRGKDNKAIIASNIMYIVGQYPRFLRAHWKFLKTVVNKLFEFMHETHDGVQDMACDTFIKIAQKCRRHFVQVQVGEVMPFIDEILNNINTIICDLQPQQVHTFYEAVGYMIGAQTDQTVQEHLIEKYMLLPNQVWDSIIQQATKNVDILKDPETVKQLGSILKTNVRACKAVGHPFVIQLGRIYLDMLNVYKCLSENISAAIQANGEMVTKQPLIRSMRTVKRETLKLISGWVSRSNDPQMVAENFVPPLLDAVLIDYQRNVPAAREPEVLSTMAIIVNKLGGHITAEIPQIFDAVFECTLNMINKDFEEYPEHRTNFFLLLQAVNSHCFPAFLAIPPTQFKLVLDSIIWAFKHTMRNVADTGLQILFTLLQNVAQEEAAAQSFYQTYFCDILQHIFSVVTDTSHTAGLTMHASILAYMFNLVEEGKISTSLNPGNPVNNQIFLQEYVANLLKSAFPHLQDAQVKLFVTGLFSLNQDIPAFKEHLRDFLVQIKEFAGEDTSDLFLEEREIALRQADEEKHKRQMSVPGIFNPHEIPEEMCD

Row | Structure (SMILES) | activity at 10 µg/mL [1] [%] | Activity (μM): inhibitory activity for XPO1 protein (full inhibitory concentration) [2] [µM] | other results
1 | NS(=O)(=O)c1cc([S+]([O-])/C=C/CCN=C=S)cc(C(F)(F)F)c1 (centres unmarked) [Compound I-07] | 20 to 25 | 0.5 to 1 | 
2 | [O-][S+](/C=C/CCN=C=S)c1ccc2cccc3c2c1CC=C3 (centres unmarked) [Compound I-13] | 30 to 35 | 1 to 5 | 
3 | [O-][S+](/C=C/CCN=C=S)c1cccnc1 (centres unmarked) [Compound I-15] | 35 to 40 | 1 to 5 | 
4 | Nc1ccc(O)c(C(=O)O)c1 [Compound 5-ASA, 5-aminosalicylic acid, reference compound] |  |  | Serum TNF-α level, Animal-1 [3]: 1.7 ng/mL; Serum TNF-α level, Animal-2 [3]: 1.8 ng/mL; Serum TNF-α level, Animal-3 [3]: 2.0 ng/mL; Macroscopic pathological score [4]: 4.0 ± 0.2; colon tissue bleeding and ulceration phenomena (in words) ([4]; 80 mg/kg): small relief extent; Serum IL-6 level, Animal-1 [5]: 2.7 ng/mL; Serum IL-6 level, Animal-2 [5]: 2.2 ng/mL; Serum IL-6 level, Animal-3 [5]: 2.3 ng/mL
5 | [O-][S+](/C=C/CCN=C=S)c1nc2ccccc2[nH]1 (centres unmarked) [Compound I-22] | 30 to 35 | 1 to 5 | 
6 | [O-][S+](/C=C/CCN=C=S)c1cncc(C(F)(F)F)c1 (centres unmarked) [Compound I-16] | 35 to 40 | 0.5 to 1 | 
7 | [O-][S+](/C=C/CCN=C=S)c1ccc2ncncc2c1 (centres unmarked) [Compound I-18] | 30 to 35 | 1 to 5 | 
8 | [O-][S+](/C=C/CCN=C=S)c1ccc(Br)cc1 (centres unmarked) [Compound I-02] | 30 to 35 | 1 to 5 | Macroscopic pathological score [4]: 2.0 ± 0.4
9 | [O-][S+](/C=C/CCN=C=S)c1ccc2c(c1)Cc1ccccc1-2 (centres unmarked) [Compound I-14] | 25 to 30 | 1 to 5 | 
10 | [O-][S+](/C=C/CCN=C=S)c1nc2ccc(C(F)(F)F)cc2[nH]1 (centres unmarked) [Compound I-23] | 30 to 35 | 1 to 5 | 
11 | C[S+]([O-])/C=C/CCN=C=S (centres unmarked) [SFE, sulforaphene, reference compound] |  | 10 to 15 | 
12 | [O-][S+](/C=C/CCN=C=S)c1ccc2cc3ccccc3cc2c1 (centres unmarked) [Compound I-12] | 30 to 35 | 1 to 5 | 
13 | [O-][S+](/C=C/CCN=C=S)c1ccc(N2CCOCC2)cc1 (centres unmarked) [Compound I-09] | 25 to 30 | 1 to 5 | 
14 | O=c1ccc2cc([S+]([O-])/C=C/CCN=C=S)ccc2o1 (centres unmarked) [Compound I-19] | 25 to 30 | 1 to 5 | 
15 | COc1ccc2nc([S+]([O-])/C=C/CCN=C=S)[nH]c2c1 (centres unmarked) [Compound I-24] | 20 to 25 | 1 to 5 | 
16 | CC(C)C[S+]([O-])/C=C/CCN=C=S (centres unmarked) [Compound F-04, reference compound] | 60 to 65 | 10 to 15 | 
17 | CC(=O)O[C@@]12CO[C@@H]1C[C@H](O)[C@@]1(C)C(=O)[C@H](O)C3=C(C)[C@@H](OC(=O)[C@H](O)[C@@H](NC(=O)OC(C)(C)C)c4ccccc4)C[C@@](O)([C@@H](OC(=O)c4ccccc4)[C@H]21)C3(C)C [Docetaxel, docetaxel] | 81 |  | response vs control in vivo at 20 mg/kg ([6]; 504 h, 20 mg/kg intraperitoneal injection once a day for 3 weeks, read-out: T/C (%)): 77%; mortality at 20 mg/kg ([6]; 720 h, read-out: Mortality (within 30 days)): 0%
18 | [O-][S+](/C=C/CCN=C=S)c1ccc(-c2ccccc2)cc1 (centres unmarked) [Compound I-26] | 20 to 25 | 0.5 to 1 | 
19 | COc1cc([S+]([O-])/C=C/CCN=C=S)cc(C(F)(F)F)c1 (centres unmarked) [Compound I-05] | 20 to 25 | 0.5 to 1 | 
20 | [O-][S+](/C=C/CCN=C=S)c1nc2ccccc2s1 (centres unmarked) [Compound I-20] | 30 to 35 | 1 to 5 | Serum TNF-α level, Animal-1 [3]: 1.3 ng/mL; Serum TNF-α level, Animal-2 [3]: 1.2 ng/mL; Serum TNF-α level, Animal-3 [3]: 1.1 ng/mL; Macroscopic pathological score [4]: 2.0 ± 0.3; Serum IL-6 level, Animal-1 [5]: 1.0 ng/mL; Serum IL-6 level, Animal-2 [5]: 1.1 ng/mL; Serum IL-6 level, Animal-3 [5]: 1.0 ng/mL
21 | [O-][S+](/C=C/CCN=C=S)c1ccc2c(c1)CCCC2 (centres unmarked) [Compound I-10] | 30 to 35 | 1 to 5 | 
22 | [O-][S+](/C=C/CCN=C=S)c1nc2cc(C(F)(F)F)ccc2s1 (centres unmarked) [Compound I-21] | 30 to 35 | 1 to 5 | 
23 | [O-][S+](/C=C/CCN=C=S)c1ccc2ncccc2c1 (centres unmarked) [Compound I-17] | 30 to 35 | 0.5 to 1 | response vs control in vivo at 80 mg/kg ([6]; 504 h, 80 mg/kg intraperitoneal injection once a day for 3 weeks, read-out: T/C (%)): 27%; mortality at 80 mg/kg ([6]; 720 h, 80 mg/kg, six mice per group, read-out: Mortality (within 30 days) (converted)): 0%
